We go through 15 compounds from US20220041647A1, “ESTRA-1,3,5(10)-TRIENE COMPOUNDS CONDENSED IN POSITION 16(17) WITH A PYRAZOLE RING AS INHIBITORS OF 17-HSD1” (FORENDO PHARMA LTD, priority 2018, published 2022).

Data set [1] can be described thus: Metabolic stability assay, human hepatocyte incubations. It is filed as in vitro ADME. The settings on record: compound 1 μM, human hepatocytes, 0-60 min at 37° C.; read-out: Human hepatocytes MetStab T½ min. As for the experimental part:
Compound stock solutions of the invention were prepared in […]. Final concentration of DMSO was adjusted to 1% in all samples. The in vitro metabolic stability of the compounds of the invention was determined for exemplified compounds using human hepatocyte incubations; study compounds at concentration of 1 μM were incubated 0, 10, 20, 40 and 60 min at 37° C. Samples were collected at all time points and compounds were detected by LC-MS/MS analysis. The percent compound remaining is calculated by comparing the peak area of the parent compound at each time point to time zero. In vitro metabolic stability was determined as half life (T1/2), which was determined by regression analysis of the percent parent disappearance vs. time curve.

The test system of data set [2] is HSD1 enzyme that is expressed in rabbit placenta tissue. The data set is described as follows: Inhibition of E1 to E2 conversion in rabbit placenta tissue homogenate. It is filed as biochemical. The settings on record: compound 100 nM, 30 nM estrone, 1 mM β-NADPH, 30 min. In outline:
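Rabbit placenta homogenate (20 mM KH2PO4, 1 mM EDTA, pH 7.4) incubated 30 min with 1 mM β-NADPH, 30 nM estrone plus 5 nM [3H]-estrone tracer, and inhibitor at 1 μM or 0.1 μM (1% DMSO). Stopped with TCA; estrone and estradiol resolved by HPLC with scintillation counting; % inhibition = 100 − % conversion relative to uninhibited control.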

Data set [3] deals with T1, recombinant human 17β-HSD2 (Homo sapiens, UniProt P37059).
T1 construct: made in house; host or cells: Sd9 (Sf9) insect cells, baculovirus (Bac to Bac Expression System)
T1 sequence (P37059 1-387): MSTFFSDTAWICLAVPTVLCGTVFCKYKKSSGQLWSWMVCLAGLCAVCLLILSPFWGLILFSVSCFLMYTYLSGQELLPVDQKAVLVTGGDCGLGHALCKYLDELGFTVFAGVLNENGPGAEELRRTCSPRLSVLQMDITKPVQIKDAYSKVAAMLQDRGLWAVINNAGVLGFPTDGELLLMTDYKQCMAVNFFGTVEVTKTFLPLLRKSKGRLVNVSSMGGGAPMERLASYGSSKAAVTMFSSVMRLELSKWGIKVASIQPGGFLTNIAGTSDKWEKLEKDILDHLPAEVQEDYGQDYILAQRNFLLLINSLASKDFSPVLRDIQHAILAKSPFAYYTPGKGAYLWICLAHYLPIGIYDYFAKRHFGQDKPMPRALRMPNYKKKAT
The data set is described as follows: Inhibition of recombinant human 17β-HSD2 (estradiol to estrone conversion, HPLC/radioactivity). Conditions: compound 1 μM; 50 nM estradiol, 1 mM NADH, 30 min RT. It is filed as biochemical. The gist of the method:
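Membrane extract of Sf9 cells expressing recombinant human 17β-HSD2 (4 μg/ml), in 20 mM KH2PO4 pH 8.5 with 50 nM ^3H-spiked estradiol and 1 mM NADH, 30 min at RT, 1% DMSO. Compound at 1 μM or 0.1 μM; estrone formation by HPLC radioactivity, % inhibition relative to uninhibited conversion.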

In general, inhibition refers to the change of the read-out against control, counted positive when it falls. Turning to `CN(C)C(=O)CC[C@@H]1c2c[nH]nc2[C@@]2(C)CCC3c4cccc(F)c4CCC3C12` (stereo partly drawn) [Compound 222, 3-((8aS,12S)-3-fluoro-8a-methyl-1,2,6b,7,8,8a,10,12,12a,12b-decahydronaphtho[2′,1′:4,5]indeno[1,2-c]pyrazol-12-yl)-N,N-dimethylpropanamide], the half-life at 1 μM in data set [1] was determined as 12 min. Also, the “Rabbit placenta inhibition % @100 nM” value in data set [2] was 11%. Further, in data set [3], the inhibition at 1 µM was found to be 0%.
Take `C[C@]12CCC3c4cccc(F)c4CCC3C1[C@H](CCC(=O)Nc1cc(F)ccn1)c1c[nH]nc12` (stereo partly drawn) [Compound 15, 3-((8aS,12S)-3-fluoro-8a-methyl-1,2,6b,7,8,8a,10,12,12a,12b-decahydronaphtho[2′,1′:4,5]indeno[1,2-c]pyrazol-12-yl)-N-(4-fluoropyridin-2-yl)propanamide]: the half-life at 1 μM in data set [1] was found to be 43 min. The “Rabbit placenta inhibition % @100 nM” value in data set [2] stood at 64%. The inhibition at 1 µM in data set [3] was 6%.
The like results for `COc1ccc(NC(=O)CC[C@@H]2c3c[nH]nc3[C@@]3(C)CCC4c5cccc(F)c5CCC4C23)nc1` (stereo partly drawn) [Compound 21, 3-((8aS,12S)-3-fluoro-8a-methyl-1,2,6b,7,8,8a,10,12,12a,12b-decahydronaphtho[2′,1′:4,5]indeno[1,2-c]pyrazol-12-yl)-N-(5-methoxypyridin-2-yl)propanamide] were, in that order, 40 min, 68% and 4%.
`CN(C)C(=O)c1ccc(NC(=O)CC[C@@H]2c3c[nH]nc3[C@@]3(C)CCC4c5cccc(F)c5CCC4C23)nc1` (stereo partly drawn) [Compound 33, 6-(3-((8aS,12S)-3-fluoro-8a-methyl-1,2,6b,7,8,8a,10,12,12a,12b-decahydronaphtho[2′,1′:4,5]indeno[1,2-c]pyrazol-12-yl)propanamido)-N,N-dimethylnicotinamide]: the half-life at 1 μM in data set [1] amounted to 107 min. Besides, the “Rabbit placenta inhibition % @100 nM” value in data set [2] is reported as 68%. Moreover, the inhibition at 1 µM in data set [3] was 8%.
The like results for `C[C@]12CCC3c4cccc(F)c4CCC3C1[C@H](CCC(=O)Nc1ccc(N3CCOCC3)cn1)c1c[nH]nc12` (stereo partly drawn) [Compound 39, 3-((8aS,12S)-3-fluoro-8a-methyl-1,2,6b,7,8,8a,10,12,12a,12b-decahydronaphtho[2′,1′:4,5]indeno[1,2-c]pyrazol-12-yl)-N-(5-morpholinopyridin-2-yl)propanamide] were, in that order, 67 min, 69% and 9%.
For the compound `CC(C)c1ccc(NC(=O)CC[C@@H]2c3c[nH]nc3[C@@]3(C)CCC4c5cccc(F)c5CCC4C23)nc1` (stereo partly drawn) [Compound 36, 3-((8aS,12S)-3-fluoro-8a-methyl-1,2,6b,7,8,8a,10,12,12a,12b-decahydronaphtho[2′,1′:4,5]indeno[1,2-c]pyrazol-12-yl)-N-(5-isopropylpyridin-2-yl)propanamide], in data set [1], the half-life at 1 μM turned out to be 37 min. Moreover, the “Rabbit placenta inhibition % @100 nM” value in data set [2] amounted to 55%. Moreover, the inhibition at 1 µM in data set [3] worked out at 8%.
As for `C[C@]12CCC3c4cccc(F)c4CCC3C1[C@H](CCC(=O)Nc1cnccn1)c1c[nH]nc12` (stereo partly drawn) [Compound 51, 3-((8aS,12S)-3-fluoro-8a-methyl-1,2,6b,7,8,8a,10,12,12a,12b-decahydronaphtho[2′,1′:4,5]indeno[1,2-c]pyrazol-12-yl)-N-(pyrazin-2-yl)propanamide], the half-life at 1 μM in data set [1] is 31 min. Further, the “Rabbit placenta inhibition % @100 nM” value in data set [2] is listed as 59%. Further, in data set [3], the inhibition at 1 µM amounted to 1%.
The like results for `C[C@]12CCC3c4cccc(F)c4CCC3C1[C@H](CCC(=O)Nc1ncccc1F)c1c[nH]nc12` (stereo partly drawn) [Compound 231, 3-((8aS,12S)-3-fluoro-8a-methyl-1,2,6b,7,8,8a,10,12,12a,12b-decahydronaphtho[2′,1′:4,5]indeno[1,2-c]pyrazol-12-yl)-N-(3-fluoropyridin-2-yl)propanamide] were, in that order, 29 min, 35% and 4%.
The like results for `COc1ccc(NC(=O)CC[C@@H]2c3c[nH]nc3[C@@]3(C)CCC4c5ccc(F)cc5CCC4C23)nc1` (stereo partly drawn) [Compound 84, 3-((8aS,12S)-4-fluoro-8a-methyl-1,2,6b,7,8,8a,10,12,12a,12b-decahydronaphtho[2′,1′:4,5]indeno[1,2-c]pyrazol-12-yl)-N-(5-methoxypyridin-2-yl)propanamide] were, in that order, 148 min, 27% and 2%.
Take `Cn1ccc(NC(=O)CC[C@@H]2c3c[nH]nc3[C@@]3(C)CCC4c5cccc(F)c5CCC4C23)n1` (stereo partly drawn) [Compound 54, 3-((8aS,12S)-3-fluoro-8a-methyl-1,2,6b,7,8,8a,10,12,12a,12b-decahydronaphtho[2′,1′:4,5]indeno[1,2-c]pyrazol-12-yl)-N-(1-methyl-1H-pyrazol-3-yl)propanamide]: the half-life at 1 μM in data set [1] was found to be 68 min. The “Rabbit placenta inhibition % @100 nM” value in data set [2] was 52%. Also, the inhibition at 1 µM in data set [3] came to 8%.
The like results for `CC(C)c1ccc(NC(=O)CC[C@@H]2c3c[nH]nc3[C@@]3(C)CCC4c5ccc(F)cc5CCC4C23)nc1` (stereo partly drawn) [Compound 87, 3-((8aS,12S)-4-fluoro-8a-methyl-1,2,6b,7,8,8a,10,12,12a,12b-decahydronaphtho[2′,1′:4,5]indeno[1,2-c]pyrazol-12-yl)-N-(5-isopropylpyridin-2-yl)propanamide] were, in that order, 127 min, 16% and 6%.
On to `CN(C)C(=O)c1ccc(NC(=O)CC[C@@H]2c3c[nH]nc3[C@@]3(C)CCC4c5ccc(Cl)cc5CCC4C23)nc1` (stereo partly drawn) [Compound 126, 6-(3-((8aS,12S)-4-chloro-8a-methyl-1,2,6b,7,8,8a,10,12,12a,12b-decahydronaphtho[2′,1′:4,5]indeno[1,2-c]pyrazol-12-yl)propanamido)-N,N-dimethylnicotinamide], for which the half-life at 1 μM in data set [1] is 147 min. The “Rabbit placenta inhibition % @100 nM” value in data set [2] was found to be 37%. Besides, in data set [3], the inhibition at 1 µM was 12%.
As for `C[C@]12CCC3c4ccccc4CCC3C1[C@H](CCC(=O)Nc1cc(F)ccn1)c1c[nH]nc12` (stereo partly drawn) [Compound 162, N-(4-fluoropyridin-2-yl)-3-((8aS,12S)-8a-methyl-1,2,6b,7,8,8a,10,12,12a,12b-decahydronaphtho[2′,1′:4,5]indeno[1,2-c]pyrazol-12-yl)propanamide], the half-life at 1 μM in data set [1] was found to be 83 min. Besides, the “Rabbit placenta inhibition % @100 nM” value in data set [2] came to 44%. Moreover, the inhibition at 1 µM in data set [3] turned out to be 9%.
For `C[C@]12CCC3c4cccc(F)c4CCC3C1[C@H](CCC(=O)Nc1cc3c([nH]c1=O)CCCC3)c1c[nH]nc12` (stereo partly drawn) [Compound 30, 3-((8aS,12S)-3-fluoro-8a-methyl-1,2,6b,7,8,8a,10,12,12a,12b-decahydronaphtho[2′,1′:4,5]indeno[1,2-c]pyrazol-12-yl)-N-(2-oxo-1,2,5,6,7,8-hexahydroquinolin-3-yl)propanamide] the same measures were 117 min, 53% and 3%.
Turning to `C[C@]12CCC3c4cccc(F)c4CCC3C1[C@H](CCC(=O)Nc1ncc(F)cc1F)c1c[nH]nc12` (stereo partly drawn) [Compound 9, N-(3,5-difluoropyridin-2-yl)-3-((8aS,12S)-3-fluoro-8a-methyl-1,2,6b,7,8,8a,10,12,12a,12b-decahydronaphtho[2′,1′:4,5]indeno[1,2-c]pyrazol-12-yl)propanamide], the half-life at 1 μM in data set [1] was 61 min. Moreover, the “Rabbit placenta inhibition % @100 nM” value in data set [2] came out at 26%. The inhibition at 1 µM in data set [3] worked out at 3%.
